According to patent publication US9241998B2 (Board of Regents, The University of Texas System, priority 2007, dated 2016):
Peptide text beside a SMILES is read from it. * marks the point of attachment. Cbz = O=C(OCc1ccccc1)*; CH2F = FC*

How the values were obtained:
[1] = test system: PC-3 cells; test: Western blot of apoptosis proteins in RSV infected cells; type: cell-based, human
Experimental: Bcl-2, Bcl-xL, Bad, Bax antibodies were obtained from Cell Signaling, while caspase-3, PARP and GFP antibodies were from Santa Cruz. Heat shock protein-70 (Hsp70) (Santa Cruz) antibody was used as a loading control. Nuclear extracts prepared from infected cells were incubated with a ^32P-labeled NF-κB oligonucleotide probe and analyzed for EMSA as described previously.

[2] = test system: RSV infected PC-3 cells; test: RSV induced apoptosis (TUNEL) with caspase inhibitors or neutralizing antibodies; type: cell-based, human; conditions: for decline in RSV induced apoptosis (TUNEL): PC-3 cells, 36 h post-infection, 15 μM optimal for caspase-3, -9, -8 inhibitors
Experimental: PC-3 cells were pre-treated with control inhibitor (Z-FA-FMK) or caspase-3 (Z-DQMD-FMK), -8 (Z-IETD-FMK), -9 (Z-LEHD-FMK), -3/7 (Z-DEVD-FMK) (Calbiochem) and -12 (Z-ATAD-FMK) (MBL) inhibitors for 1 h at 37° C. Caspase-3, -8, -9 and -3/7 inhibitors at 15 μM-60 μM were used, while the caspase-12 inhibitor was used at 50 μM-100 μM. […] The cells were then washed and the infection was continued for an additional 36 h in the presence of inhibitors, following which apoptosis analysis was performed by TUNEL assay. […] In some experiments, infection was performed in the presence of both neutralizing antibody and caspase-3 or -8 inhibitors. At 36 h post-infection, cells were assayed for apoptosis. PC-3 and RWPE cells were pre-treated with either SN50 peptide (30 μM) or control SN50M (50 μM) peptide (Calbiochem) for 2 h, followed by virus infection (in the presence of peptides) for 0 h-36 h, after which cells were analyzed for apoptosis.

[3] = test system: A549 cells; test: Interferon-γ+Fas antibody mediated apoptosis in A549 cells; type: cell-based, human
Description: (§1) The extrinsic pathway to apoptosis is induced following engagement of death receptors (e.g., TNF-receptor and Fas) with cognate ligands (TNF and FasL), leading to the activation of caspase-8. The ER-stress pathway (12) activation leads to activation of caspase-12. Activation of both caspase-8 and caspase-12 results in caspase-3 activation and apoptosis. […] Similarly, blocking caspase-9 activity also led to significant inhibition (by 75%) in apoptosis. […] It is important to note that the caspase-8 inhibitor is active, since it reduced interferon-γ+Fas antibody mediated apoptosis (14) in A549 cells by 60%.

[4] = test system: human lung epithelial A549 cells; test: RSV mediated apoptosis in A549 cells with caspase inhibitor; type: cell-based
Description: as §1

COC(=O)CC[C@H](NC(=O)[C@H](CC(=O)OC)NC(=O)OCc1ccccc1)C(=O)N[C@H](C(=O)N[C@@H](CC(=O)OC)C(=O)CF)C(C)C [Z-DEVD-FMK]
PARP cleavage in RSV infected cells treated with inhibitor [1]: prevented PARP cleavage

COC(=O)C[C@H](NC(=O)[C@H](CCSC)NC(=O)[C@H](CCC(N)=O)NC(=O)[C@H](CC(=O)OC)NC(=O)OCc1ccccc1)C(=O)CF [caspase-3 inhibitor, Z-DQMD-FMK] (Cbz-D(OMe)QMD(OMe)-CH2F)
PARP cleavage in RSV infected cells treated with inhibitor [1]: prevented PARP cleavage | decline in RSV induced apoptosis (TUNEL) [2]: 85%

CC[C@H](C)[C@H](NC(=O)OCc1ccccc1)C(=O)N[C@@H](CCC(=O)OC)C(=O)N[C@H](C(=O)N[C@@H](CC(=O)OC)C(=O)CF)[C@@H](C)O [caspase-8 inhibitor, Z-IETD-FMK] (Cbz-IE(OMe)TD(OMe)-CH2F)
reduction of interferon-γ+Fas antibody mediated apoptosis [3]: 60% | decline in RSV induced apoptosis (TUNEL) [2]: 15%

COC(=O)CC[C@H](NC(=O)[C@H](CC(C)C)NC(=O)OCc1ccccc1)C(=O)N[C@@H](Cc1cnc[nH]1)C(=O)N[C@@H](CC(=O)OC)C(=O)CF [caspase-9 inhibitor, Z-LEHD-FMK] (Cbz-LE(OMe)HD(OMe)-CH2F)
decline in RSV induced apoptosis (TUNEL) [2]: 75%

C[C@H](NC(=O)OCc1ccccc1)C(=O)N[C@H](C(=O)N[C@@H](C)C(=O)N[C@@H](CC(=O)O)C(=O)CF)[C@@H](C)O [caspase-12 inhibitor, Z-ATAD-FMK] (Cbz-ATAD-CH2F)
inhibition of RSV mediated apoptosis [4]: 40% | decline in RSV induced apoptosis (TUNEL) [2]: did not alter apoptosis | inhibition of apoptosis in infected PC-3 cells at high concentration ([2]; up to 100 μM): failed to inhibit apoptosis
